# Assay results as given in patent US20180000942A1, “COMPOSITIONS FOR DRUG ADMINISTRATION” (priority 2013, published 2018).
# What was measured:
# blood glucose [1] = assay: Insulin eye drops with absorption enhancer in xylazine/ketamine anesthetized rats, blood glucose
# blood glucose [2] = assay: Insulin eye drops with […] and nose drops with 0.5% tetradecyl maltoside, blood glucose; type: in vivo, rat; conditions: insulin nose drops with 0.5% tetradecyl maltoside added after 120 min
# human nasal epithelium = assay: Irritation of nasal mucosa on daily intranasal administration; conditions: […] in OTC nasal saline, 33 days
# [3] = Bioavailability of antisense oligonucleotide given intrajejunally; type: in vivo, Cynomolgus monkeys; conditions: AUC over 240 minutes relative to reference
# Description: An approximately 7,000 Dalton antisense oligonucleotide (ASO) with a modified backbone (phosphorothioate oligonucleotide as described in U.S. Pat. No. 7,132,530) mixed with alkylglycoside tetradecyl-beta-D-maltoside (Intravail™), was administered to six Cynomolgus monkeys canulated into the jejunum at a dose of 10 mg/kg. The animals were fasted prior to administration. Test agents were dissolved in PBS buffer and injected through the cannula into the jejunum of each animal in a 1.5 mL volume or administered subcutaneously (s.c.) as noted in Table VIII.
# The protocol involved a 3 way crossover in which each animal had the first 3 test agents in Table VIII administered on 3 different dates. There was a 1 week washout period between dosing dates. […] Analysis of the blood levels was conducted using quantitative analysis involving solid phase extraction using cationic polystyrene nanoparticles. […]
# Quantitative analysis was performed with capillary gel electrophoresis of the extracted samples. […] Using the data obtained from CGE analysis, quantitation of phosphorothioate oligonucleotides was carried out. The amount of oligonucleotides in the samples (nON) was calculated using the following formula: […]
# The relative bioavailabilities were determined as the ratio of each AUC divided by the AUC for the intravenously administered drug. […]
# [4] = New Zealand White, rabbit, in vivo
# Description: Thereafter, the animals return to consciousness. At individual time point over a two hour period, 1 mL blood samples are collected from the central ear artery. […] All samples are stored at −70° C. until assaying for melatonin. Melatonin is measured using a commercial ELISA kit manufactured by GenWay Biotech Inc., San Diego, Calif.
# in vivo = conditions: other: buccal, 60 mg
smiles,measurement,setting,value
"CCCCCCCCCCCCCCO[C@@H]1O[C@H](CO)[C@@H](O[C@H]2O[C@H](CO)[C@@H](O)[C@H](O)[C@H]2O)[C@H](O)[C@H]1O [Tetradecyl Maltoside, n-tetradecyl-4-O-α-D-glucopyranosyl-β-D-glucopyranoside]","effect as absorption enhancer for ocular insulin (blood glucose lowering), in words",blood glucose [1]; 0.5% enhancer,effective
same,"effect as absorption enhancer for ocular insulin (blood glucose lowering), in words",blood glucose [1]; […] enhancer,effective
same,Blood Glucose,blood glucose [2]; time 150 min,74 mg/dL
same,Blood Glucose,blood glucose [2]; time 165 min,76 mg/dL
same,Blood Glucose,blood glucose [2]; time 180 min,68 mg/dL
same,irritation of the nasal mucosa,human nasal epithelium,no observable irritation
same,Average Bioavailability (n = 6),[3],up to 18%
"COc1ccc2[nH]cc(CCNC(C)=O)c2c1 [melatonin, 5-methoxy-N-acetyltryptamine]",time to maximal concentration versus tablets without alkyl saccharides,[4],approximately one half the time
"O=C(c1ccc(OCCN2CCCCC2)cc1)c1c(-c2ccc(O)cc2)sc2cc(O)ccc12 [raloxifene, Raloxifene]",bioavailability,in vivo,≥ 4%
